Our source for the IC50 values is US20260241039A1, “FLUORESCENT PROBES FOR MAGL” (Hoffmann-La Roche Inc., priority 2022, published 2026).

The target in the assay is T1, hMAGL (Homo sapiens, UniProt Q99685).
T1 sequence (Q99685 1-303): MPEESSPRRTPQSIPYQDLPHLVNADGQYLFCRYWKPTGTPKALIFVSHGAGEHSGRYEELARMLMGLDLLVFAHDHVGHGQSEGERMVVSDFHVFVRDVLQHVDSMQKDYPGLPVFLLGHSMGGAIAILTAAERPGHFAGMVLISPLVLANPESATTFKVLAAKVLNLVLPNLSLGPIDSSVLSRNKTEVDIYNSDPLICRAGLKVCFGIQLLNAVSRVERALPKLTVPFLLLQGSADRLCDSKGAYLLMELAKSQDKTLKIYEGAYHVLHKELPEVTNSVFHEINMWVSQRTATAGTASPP
The assay is described as follows: 2-AG assay: MAGL inhibitory activity, hydrolysis of 2-arachidonoylglycerol to arachidonic acid followed by mass spectrometry. Type of assay: biochemical. The conditions noted are these: 15 min pre-incubation at RT, 30 min reaction at RT, 8 μM 2-arachidonoylglycerol. The protocol:
Compounds were profiled for MAGL inhibitory activity by determining the enzymatic activity by following the hydrolysis of the natural substrate 2-arachidonoylglycerol (2-AG) resulting in arachidonic acid, which can be followed by mass spectrometry. This assay is hereinafter abbreviated “2-AG assay”.
The 2-AG assay was carried out in 384 well assay plates (PP, Greiner Cat #784201) in a total volume of 20 μL. Compound dilutions were made in 100% DMSO (VWR Chemicals 23500.297) in a polypropylene plate in 3-fold dilution steps to give a final concentration range in the assay from 12.5 μM to […]. 0.25 μL compound dilutions (100% DMSO) were added to 9 μL MAGL in assay buffer (50 mM TRIS (GIBCO, 15567-027), 1 mM EDTA (Fluka, 03690-100 mL), 0.01% (v/v) Tween. After shaking, the plate was incubated for 15 min at RT. To start the reaction, 10 μL 2-arachidonoylglycerol in assay buffer was added. The final concentrations in the assay was […] and 8 μM 2-arachidonoylglyerol. After shaking and 30 min incubation at RT, the reaction was quenched by the addition of 40 μL of ACN containing 4 μM of d8-arachidonic acid. The amount of arachidonic acid was traced by an online SPE system (Agilent Rapidfire) coupled to a triple quadrupole mass spectrometer (Agilent 6460). A C18 SPE cartridge (G9205A) was used in an ACN/water liquid setup. The mass spectrometer was operated in negative electrospray mode following the mass transitions 303.1→259.1 for arachidonic acid and 311.1→267.0 for d8-arachidonic acid. The activity of the compounds was calculated based on the ratio of intensities [arachidonic acid/d8-arachidonic acid].
`O=C1CO[C@H]2CCN(C(=O)N3CCC(Nc4ccc([N+](=O)[O-])c5nonc45)CC3)C[C@H]2N1` [Example 6, (4aR,8aS)-6-(4-((7-nitrobenzo[c][1,2,5]oxadiazol-4-yl)amino)piperidine-1-carbonyl)hexahydro-2H-pyrido[4,3-b][1,4]oxazin-3(4H)-one] came in with an IC50 of 3810 nM.

For `O=C1CO[C@H]2CCN(C(=O)N3CC4(CC(CC5=C6C=CC=[N+]6[B-](F)(F)n6cccc65)C4)C3)C[C@H]2N1` [Example 16, (4aR,8aS)-6-(6-((5,5-difluoro-5H-4λ^4,5λ^4-dipyrrolo[1,2-c:2,1′-f][1,3,2]diazaborinin-10-yl)methyl)-2-azaspiro[3.3]heptane-2-carbonyl)hexahydro-2H-pyrido[4,3-b][1,4]oxazin-3(4H)-one], the half-inhibitory concentration (IC50) came to 0.77 nM.

As for “(4aR,8aS)-6-(4-((5,5-difluoro-5H-4λ^4, 5λ^4-dipyrrolo[1,2-c:2′,1′-f][1,3,2]diazaborinin-10-yl)oxy)piperidine-1-carbonyl)hexahydro-2H-pyrido[4,3-b][1,4]oxazin-3(4H)-one [Example 9]”, the IC50 came to 6320 nM.

Regarding “2-(6-((5,5-difluoro-5H-4λ^4,5λ^4-dipyrrolo[1,2-c:2′,1′-f][1,3,2]diazaborinin-10-yl)oxy)-2-azaspiro[3.3]heptane-2-carbonyl)-7-oxa-2,5-diazaspiro[3.4]octan-6-one [Example 11]”, half-maximal inhibition (IC50) required 1.76 nM.

`O=C1CO[C@H]2CCN(C(=O)N3CC(COc4ccc5ccc(=O)oc5c4)C3)C[C@H]2N1` [Example 2, (4aR,8aS)-6-(3-(((2-oxo-2H-chromen-7-yl)oxy)methyl)azetidine-1-carbonyl)hexahydro-2H-pyrido[4,3-b][1,4]oxazin-3(4H)-one] yielded an IC50 of 487 nM.

Molecule `COc1ccc2c(CN3CCN(C(=O)N4CC[C@@H]5OCC(=O)N[C@@H]5C4)CC3)cc(=O)oc2c1` [Example 5, (4aR,8aS)-6-(4-((7-methoxy-2-oxo-2H-chromen-4-yl)methyl)piperazine-1-carbonyl)hexahydro-2H-pyrido[4,3-b][1,4]oxazin-3(4H)-one] returned an IC50 of 3310 nM.

“(4aR,8aS)-6-(7-((5,5-difluoro-5H-4λ^4, 5λ^4-dipyrrolo[1,2-c:2,1′-f][1,3,2]diazaborinin-10-yl)methylene)-2-azaspiro[3.5]nonane-2-carbonyl)hexahydro-2H-pyrido[4,3-b][1, 4]oxazin-3(4H)-one [Example 18]” registered an IC50 of 0.64 nM.

On to “2-(7-((5,5-difluoro-5H-4λ^4,5λ^4-dipyrrolo[1,2-c:2′,1′-f][1,3,2]diazaborinin-10-yl)methyl)-2-azaspiro[3.5]nonane-2-carbonyl)-7-oxa-2,5-diazaspiro[3.4]octan-6-one [Example 21]”, for which the IC50 stood at 0.69 nM.

Regarding “(4aR,8aS)-6-(7-((5,5-difluoro-5H-4λ^4, 5λ^4-dipyrrolo[1,2-c:2,1′-f][1,3,2]diazaborinin-10-yl)methyl)-2-azaspiro[3.5]nonane-2-carbonyl)hexahydro-2H-pyrido[4,3-b][1,4]oxazin-3(4H)-one [Example 19]”, the IC50 worked out at 2.35 nM.

As to “(6-((5,5-difluoro-5H-424, 5λ^4-dipyrrolo[1,2-c:2′,1′-f][1,3,2]diazaborinin-10-yl)methyl)-2-azaspiro[3.3]heptan-2-yl)(4-(5-methyloxazolo[4,5-b]pyridin-2-yl)piperazin-1-yl)methanone [Example 26]”, inhibition was half-maximal at 17.2 nM (IC50).

Consider “2-(6-((5,5-difluoro-5H-4λ^4,5λ^4-dipyrrolo[1,2-c:2′,1′-f][1,3,2]diazaborinin-10-yl)methylene)-2-azaspiro[3.3]heptane-2-carbonyl)-7-oxa-2,5-diazaspiro[3.4]octan-6-one [Example 22]”, for which the IC50 stood at 12.6 nM.

As to `O=C1CO[C@H]2CCN(C(=O)N3CC(COc4cc(=O)oc5ccccc45)C3)C[C@H]2N1` [Example 3, (4aR,8aS)-6-(3-(((2-oxo-2H-chromen-4-yl)oxy)methyl)azetidine-1-carbonyl)hexahydro-2H-pyrido[4,3-b][1,4]oxazin-3(4H)-one], inhibition was half-maximal at 667 nM (IC50).

Regarding “(4aR,8aS)-6-(7-((5,5-difluoro-5H-4λ^4, 5λ^4-dipyrrolo[1,2-c:2,1′-f][1,3,2]diazaborinin-10-yl)oxy)-2-azaspiro[3.5]nonane-2-carbonyl)hexahydro-2H-pyrido[4,3-b][1,4]oxazin-3(4H)-one [Example 10]”, the IC50 came to 3.82 nM.

Molecule “(4aR,8aS)-6-(6-((5,5-difluoro-3-phenyl-5H-4λ^4,5λ^4-dipyrrolo[1,2-c:2′,1′-f][1,3,2]diazaborinin-10-yl)methyl)-2-azaspiro[3.3]heptane-2-carbonyl)hexahydro-2H-pyrido[4,3-b][1,4]oxazin-3(4H)-one [Example 29]” came in with a 50% inhibitory concentration (IC50) of 0.66 nM.

Consider “(6-(3-cyclopropyl-1H-1,2,4-triazol-1-yl)-2-azaspiro[3.3]heptan-2-yl)(6-((5,5-difluoro-5H-4λ^4,5λ^4-dipyrrolo[1,2-c:2,1′-f][1,3,2]diazaborinin-10-yl)methyl)-2-azaspiro[3.3]heptan-2-yl)methanone [Example 25]”, for which the IC50 turned out to be 0.34 nM.

On to `O=C(N1CC2(CC(CC3=C4C=CC=[N+]4[B-](F)(F)n4c3ccc4-c3ccc[nH]3)C2)C1)N1CC2(CC(n3cnc(C4CC4)n3)C2)C1` [Example 31, (6-(3-cyclopropyl-1H-1,2,4-triazol-1-yl)-2-azaspiro[3.3]heptan-2-yl)(6-((5,5-difluoro-3-(1H-pyrrol-2-yl)-5H-5λ^4,6λ^4-dipyrrolo[1,2-c:2′,1′-f][1,3,2]diazaborinin-10-yl)methyl)-2-azaspiro[3.3]heptan-2-yl)methanone], for which the IC50 was determined as 0.59 nM.

“2-(7-((5,5-difluoro-5H-4λ^4,5λ^4-dipyrrolo[1,2-c:2′,1′-f][1,3,2]diazaborinin-10-yl)methylene)-2-azaspiro[3.5]nonane-2-carbonyl)-7-oxa-2,5-diazaspiro[3.4]octan-6-one [Example 20]” had an IC50 of 0.67 nM.

On to `O=C1CO[C@H]2CCN(C(=O)N3CC4(CC(=CC5=C6C=CC=[N+]6[B-](F)(F)n6cccc65)C4)C3)C[C@H]2N1` [Example 15, (4aR,8aS)-6-(6-((5,5-difluoro-5H-4λ^4, 5λ^4-dipyrrolo[1,2-c:2,1′-f][1,3,2]diazaborinin-10-yl)methylene)-2-azaspiro[3.3]heptane-2-carbonyl)hexahydro-2H-pyrido[4,3-b][1,4]oxazin-3(4H)-one], for which the IC50 was 43.3 nM.

In turn, `O=C1CO[C@H]2CCN(C(=O)N3CC4(CC(Oc5ccc6ccc(=O)oc6c5)C4)C3)C[C@H]2N1` [Example 1] displayed an IC50 of 255 nM.

“2-(6-((5,5-difluoro-5H-4λ^4,5λ^4-dipyrrolo[1,2-c:2′,1′-f][1,3,2]diazaborinin-10-yl)methyl)-2-azaspiro[3.3]heptane-2-carbonyl)-7-oxa-2,5-diazaspiro[3.4]octan-6-one [Example 23]” yielded a half-inhibitory concentration (IC50) of 1.26 nM.
